Test system: caspase-8
Assay: Caspase-8 immunoblot in NB cells
Assay type: cell-based
Conditions: SMS-KCNR cells
Protocol: FIG. 10D. Caspase-8 immunoblot.
In depth studies were carried out to assess the activation of intrinsic and extrinsic apoptotic pathways. […] Caspase-9 was activated by B3CD in these cells (FIG. 10B), indicating an active role of intrinsic pathway of apoptosis. […] However, caspase-8 was undetectable in IMR-32 and SH-SY5Y cells.
Although caspase-8 was detected in SMS-KCNR cells, it was not activated by B3CD (FIG. 10D). Actin immunoblotting was used as loading control in the above studies (data not shown).

`C=C1CC[C@H](OC(=O)CBr)C/C1=C/C=C1\CCC[C@]2(C)[C@@H]([C@H](C)CCCC(C)(C)O)CC[C@@H]12` [B3CD, bromoacetic acid 3-{2-[1-(5-hydroxy-1,5-dimethyl-hexyl)-7a-methyl-octahydro-inden-4-ylidene]-ethylidene}-4-methylene-cyclohexyl ester] was tested, and the “caspase-8 activation (immunoblot)” value was “not activated”.
